Measurements as given in patent US9353382B2, “Process, vectors and engineered cell lines for enhanced large-scale transfection” (National Research Council of Canada, priority 2008, dated 2016).

Assays:
[1] = tested on: CHO-EBNA1c (clone 3E7) cells; assay: Effect of PKB (AKT) and valproic acid on transient gene expression (SEAP); assay type: cell-based, Chinese Hamster; details: 0.25 mM VPA added 24 hours post-transfection; days 5 to 8 post-transfection
Description: (§1) Secreted alkaline phosphatase activity determination: SEAP activity is measured as previously described using the colorimetric substrate paranitrophenyl phosphate (Durocher et al, 2000).
Referring to FIG. 10, the effect of PKB (AKT) and valproic acid (VPA) on transient gene expression in CHO-EBNA1c (clone 3E7) cells is illustrated. The CHO-EBNA1c cells were transfected with a mixture of SEAP-encoding oriP plasmids (pTT-SEAP) and stuffer DNA or pTT-AKTdd vector (AKTdd is a dominant-positive mutant of AKT). In some cases, 0.25 mM VPA was added 24 hours post-transfection. SEAP activity (ΔA410/min) was measured at days 5 to 8 post-transfection.

[2] = tested on: HEK293-EBNA1t (clone 6E) cells; assay: Effect of FGF2 co-expression on transient SEAP expression in HEK293-EBNA1t cells; assay type: cell-based, human; details: 25% pTT-SEAP, 0-70% FGF2 plasmid; 7 days post-transfection
Description: as §1
(§2) Referring to FIG. 9, graphs are shown illustrating the effect of FGF2 (bFGF) co-expression on transient gene expression in HEK293-EBNA1t (clone 6E) cells (upper panel) and CHO-EBNA1c (clone 3E7) cells (lower panel). The HEK293-EBNA1t and CHO-EBNA1c cells were transfected with 25% pTT-SEAP vector and increasing amounts (0%, 15%, 30%, 45%, 60% and 70%) of FGF2-encoding pTT plasmid (the overall content of DNA was kept constant with non-coding stDNA). SEAP activity (OD/min at 410 nm) was measured in the supernatant 7 days post-transfection. From the upper panel it is evident that SEAP activity in HEK293-EBNA1t cells is decreased by co-expression of FGF2. From the lower panel it is evident that SEAP activity in CHO-EBNA1c cells is increased by co-expression of FGF2. […] Increased productivity in CHO cells may be due to a FGF-induced rRNA synthesis.

[3] = tested on: CHO-EBNA1c (clone 3E7) cells; assay: Effect of FGF2 co-expression on transient SEAP expression in CHO-EBNA1c cells; assay type: cell-based, Chinese Hamster; details: 25% pTT-SEAP, 0-70% FGF2 plasmid; 7 days post-transfection
Description: as §1, §2

| Compound | effect on transient gene expression (SEAP activity) [1] | SEAP activity on co-expression of FGF2 [2] | SEAP activity on co-expression of FGF2 [3] |
| --- | --- | --- | --- |
| CCCC(CCC)C(=O)O [valproic acid] | increases transient gene expression |  |  |
| FGF2 |  | decreased | increased |
